Patent US8445510B2, “Fused bicyclic kinase inhibitors” (OSI Pharmaceuticals, LLC, priority 2011, dated 2013)
pIC50: −log10 of the molar value.

Legend:
Assay type in all cases: cell-based
RON = biological target: T1, RON (Homo sapiens, UniProt Q04912); assay: sfRON cell mechanistic assay (HeLa), phosphorylated RON ELISA; settings: HeLa cells transfected with sfRON; inhibition of phosphorylated RON; four hours incubation; at least duplicate experiments; read-out: sfRON mech IC50
T1 sequence (Q04912 913-1400): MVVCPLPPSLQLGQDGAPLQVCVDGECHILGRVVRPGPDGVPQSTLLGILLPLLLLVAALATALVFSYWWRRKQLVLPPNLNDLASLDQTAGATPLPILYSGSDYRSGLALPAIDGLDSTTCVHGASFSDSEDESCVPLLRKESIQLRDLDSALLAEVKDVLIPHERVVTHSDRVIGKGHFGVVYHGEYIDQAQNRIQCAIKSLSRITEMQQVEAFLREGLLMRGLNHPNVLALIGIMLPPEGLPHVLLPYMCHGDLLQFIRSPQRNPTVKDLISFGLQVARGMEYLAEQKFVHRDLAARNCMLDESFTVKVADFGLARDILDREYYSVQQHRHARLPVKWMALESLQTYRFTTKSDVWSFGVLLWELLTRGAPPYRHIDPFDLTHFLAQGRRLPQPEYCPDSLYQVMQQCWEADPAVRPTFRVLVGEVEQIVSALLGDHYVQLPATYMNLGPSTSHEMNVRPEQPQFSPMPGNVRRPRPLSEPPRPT
Protocol: The cellular activity of the compounds of the present invention against RON may be determined by the following procedure. HeLa cells were plated in Falcon 3072 96-well plates in growth media (DMEM, 10% FBS, 1% L-glutamine) at a density of 10000 cells/well and incubated at 37° C., 5% CO2 overnight. The following day, cells were transfected with 0.2 μg sfRON-pcDNA plasmid DNA with 0.5 μL Lipofectamine-2000 per well in the presence of 50 μL OPTI-MEM, incubated at 37° C., 5% CO2 overnight. Costar 3915 96-well assay plates were coated with rabbit Anti-RON antibody at 2.0 μg/mL, sealed, and incubated overnight at 4° C. On the third day, coated plates were washed with PBS and blocked with 3% BSA. For the sfRON transfected cells, one-tenth volume of a 10× concentration of compounds was added to the wells in a 6-point dilution series. The dilution series was composed of an initial 1:5 dilution of a 10 mM DMSO stock solution of compound in DMSO, followed by a 1:10 dilution in growth media, for a final DMSO concentration on cells of 0.5%. Control wells were treated with 0.5% DMSO. The typical range of dilution was 10 μM to 3 nM. Once compound was added to the cells, plates were incubated for four hours at 37° C., 5% CO2. Plates were then washed in PBS, and lysed in triton-based lysis buffer. Lysates were transferred to the blocked capture plates. The phosphorylated RON levels were measured by incubating with a Goat polyclonal antibody against phosphorylated RON ([pYpY1238/1239]) followed by an anti-Goat antibody conjugated to HRP. Signal was measured on a Wallac Victor plate reader with luminance. The DMSO signal of the control wells was defined as 100% and the percent of inhibition of phosphorylated RON was expressed as percent of control. IC50 values were determined from the percent of control data using a standard four-parameter model.
The IC50 values of exemplary compounds of the present invention determined in a sfRON cell mechanistic assay using the HeLa cell line according to the procedures described herein in at least duplicate experiments are abbreviated as follows and are shown in Table 3: A, IC50≦0.2 μM; B, 0.2 μM<IC50≦1.0 μM; C, IC50>1 μM; ND, not determined. The Example # of Table 3 corresponds to the compound example number as illustrated in the Examples section.

MKN45 cells = assay: MKN45 cell proliferation assay (CellTiter-Glo); settings: Homo sapiens, MKN-45, 72 h; MKN45 cell line; 3 days incubation; at least duplicate experiments; read-out: Prolif. IC50
Protocol: The effect of inhibitors on the proliferation of MKN45 cells was determined using the following protocol. MKN45 cells were plated in Corning 3917 96-well white tissue culture treated plates in growth medium (RPMI, 10% FCS) at a density of 5000 cells/well in a total volume of 135 μL and incubated at 37° C., 5% CO2, 95% humidity overnight. The following day, one-tenth volume of a 10× concentration of compounds was added to the wells in an 8-point dilution series. The dilution series was composed of an initial 1:5 dilution of a 10 mM stock of compound in DMSO, followed by serial 1:4 dilutions in DMSO, then a 1:20 dilution in growth medium prior to the 1:10 dilution into the cell plate. […] The typical dilution range is 10 μM to 0.6 nM. Once the compound was added to the cells, plates were incubated for 3 days at 37° C., 5% CO2 at 95% humidity. On the third day, after allowing all cells and reagents to come to room temperature, 25 μL of CellTiter-Glo reagent (Promega #G7573) was added to the wells. Plates were shaken on a platform for 10 minutes prior to reading luminescence for 0.1 seconds. The signal of the control wells was taken as 100% growth and growth inhibition was expressed as percent of control. IC50 values were determined from the percent of control data using a standard four-parameter model.
(§1) The IC50 values of exemplary compounds of the present invention determined in a cell proliferation assay using the MKN45 cell line according to the procedures described herein in at least duplicate experiments are abbreviated as follows and are shown in Table 2: A, IC50≦0.05 μM; B, 0.05 μM<IC50≦0.2 μM; C, 0.2 μM<IC50≦1 μM; D, IC50>1 μM; ND, not determined. The Example # of Table 2 corresponds to the compound example number as illustrated in the Examples section.
Treatment of this cell line with a selective c-MET inhibitor led to induction of apoptosis and inhibition of proliferation, whereas non-MET-amplified cell lines were not affected [Smolen et al., Proc. Natl. Acad. Sci. USA, 103(7):2316-2321 (2006)]. This cell line is thus “driven” by c-MET, and antiproliferative effects correlate very well with the inhibition of c-MET phosphorylation so that the cell proliferation IC50, values can be used as surrogate for the c-MET cell mechanistic IC50, values. Under the assay conditions described herein, the IC50 values correlate nearly 1:1.

Karpas-299 cells = assay: Karpas-299 cell proliferation assay (CellTiter-Glo); settings: Homo sapiens, 72 h; Karpas-299 cell line (NPM-ALK); 3 days incubation; at least duplicate experiments; read-out: Prolif. IC50
Protocol: The effect of inhibitors on the proliferation of Karpas-299 cells (DSMZ no. ACC 31) was determined using the following protocol. Karpas-299 cells were plated in 96-well white tissue culture treated plates (Corning 3917) in growth medium (RPMI, 10% FCS) at a density of 5000 cells/well in a total volume of 135 μL and incubated at 37° C., 5% CO2, 95% humidity overnight. The following day, one-tenth volume of a 10× concentration of compounds was added to the wells in an 8-point dilution series. Compounds were serially diluted (1:4) in DMSO from a 10 mM stock solution prior to dilution in growth media to the 10× working concentrations (5% DMSO). Final concentration of DMSO in compound-treated wells was 0.5%. Control wells containing growth media or growth media/0.5% DMSO were included in all test plates. […] Once the compounds were added to the cells, plates were incubated for 3 days at 37° C., 5% CO2 at 95% humidity. After 72 hours, all cells and reagents were equilibrated to room temperature and 15 μL of CellTiter-Glo reagent (Promega # G7573) was added to each well. Plates were shaken on a platform for 10 minutes at room temperature prior to reading luminescence. The value of the signal of the control wells was set as 100% growth and growth inhibition was expressed as percent of control. IC50 values were determined from the percent of control data using a standard four-parameter curve fit equation.
as §1, with “the Karpas-299” for “the MKN45”, “Table 5:” for “Table 2:”, “Table 5” for “Table 2”
The Karpas-299 cell line has a t(2; 5) chromosomal translocation and expresses the NPM-ALK fusion protein, resulting in constitutively active ALK. […] Ther. 6(12):3314-22 (2007)]. With this “ALK-driven” cell line, the cell proliferation IC50 values can thus be used as surrogate for the p-ALK cell mechanistic IC50 values.

pIC50 (RON)	pIC50 (MKN45 cells)	pIC50 (Karpas-299 cells)	Compound
< 6.00	≥ 7.30	6.70 to 7.30	COc1ccc(F)c(Cl)c1[C@@H](C)c1c[nH]c2ncc(-c3cnn([C@H]4CC[C@@H](N5CCN(C(C)=O)CC5)CC4)c3C)cc12 [Example 57, 1-{4-[cis-4-(4-{3-[(1S)-1-(2-Chloro-3-fluoro-6-methoxyphenyl)ethyl]-1H-pyrrolo[2,3-b]pyridin-5-yl}-5-methyl-1H-pyrazol-1-yl)cyclohexyl]piperazin-1-yl}ethanone]
6.00 to 6.70	≥ 7.30	≥ 7.30	COc1ccc(F)c(Cl)c1[C@@H](C)c1c[nH]c2ncc(-c3cnn([C@H]4CC[C@H](N)CC4)c3C)cc12 [Example 58, trans-4-(4-{3-[(1S)-1-(2-Chloro-3-fluoro-6-methoxyphenyl)ethyl]-1H-pyrrolo[2,3-b]pyridin-5-yl}-5-methyl-1H-pyrazol-1-yl)cyclohexanamine]
6.00 to 6.70	≥ 7.30	≥ 7.30	Cc1c(-c2cnc3[nH]cc([C@H](C)c4c(OC(F)F)ccc(F)c4Cl)c3c2)cnn1[C@H]1CC[C@@H](O)CC1 [Example 86, cis-4-[4-(3-{(1S)-1-[2-Chloro-6-(difluoromethoxy)-3-fluorophenyl]ethyl}-1H-pyrrolo[2,3-b]pyridin-5-yl)-5-methyl-1H-pyrazol-1-yl]cyclohexanol]
≥ 6.70	≥ 7.30	≥ 7.30	Cc1c(-c2cnc3[nH]cc([C@H](C)c4c(OC(F)F)ccc(F)c4Cl)c3c2)cnn1C[C@@H](O)CO [Example 87, (2R)-3-[4-(3-{(1S)-1-[2-Chloro-6-(difluoromethoxy)-3-fluorophenyl]ethyl}-1H-pyrrolo[2,3-b]pyridin-5-yl)-5-methyl-1H-pyrazol-1-yl]propane-1,2-diol]
6.00 to 6.70	≥ 7.30	≥ 7.30	Cc1c(-c2cnc3[nH]cc([C@H](C)c4c(OC(F)F)ccc(F)c4Cl)c3c2)cnn1C1CCC(=O)CC1 [Example 88, 4-[4-(3-{(1S)-1-[2-Chloro-6-(difluoromethoxy)-3-fluorophenyl]ethyl}-1H-pyrrolo[2,3-b]pyridin-5-yl)-5-methyl-1H-pyrazol-1-yl]cyclohexanone]
< 6.00	≥ 7.30	6.70 to 7.30	Cc1c(-c2cnc3[nH]cc([C@H](C)c4c(OC(F)F)ccc(F)c4Cl)c3c2)cnn1[C@H]1CC[C@H](N(C)CC(=O)O)CC1 [Example 89, N-{trans-4-[4-(3-{(1S)-1-[2-Chloro-6-(difluoromethoxy)-3-fluorophenyl]ethyl}-1H-pyrrolo[2,3-b]pyridin-5-yl)-5-methyl-1H-pyrazol-1-yl]cyclohexyl}-N-methylglycine]
< 6.00	6.70 to 7.30	6.70 to 7.30	Cc1c(-c2cnc3[nH]cc([C@H](C)c4c(OC(F)F)ccc(F)c4Cl)c3c2)cnn1[C@H]1CC[C@@H](N(C)CC(=O)O)CC1 [Example 90, N-{cis-4-[4-(3-{(1S)-1-[2-Chloro-6-(difluoromethoxy)-3-fluorophenyl]ethyl}-1H-pyrrolo[2,3-b]pyridin-5-yl)-5-methyl-1H-pyrazol-1-yl]cyclohexyl}-N-methylglycine]
< 6.00	6.70 to 7.30	6.70 to 7.30	Cc1c(-c2cnc3[nH]cc([C@H](C)c4c(OC(F)F)ccc(F)c4Cl)c3c2)cnn1[C@H]1CC[C@H](N2CCC[C@H]2C(=O)O)CC1 [Example 91, 1-{trans-4-[4-(3-{(1S)-1-[2-Chloro-6-(difluoromethoxy)-3-fluorophenyl]ethyl}-1H-pyrrolo[2,3-b]pyridin-5-yl)-5-methyl-1H-pyrazol-1-yl]cyclohexyl}-L-proline]
< 6.00	6.00 to 6.70	6.00 to 6.70	Cc1c(-c2cnc3[nH]cc([C@H](C)c4c(OC(F)F)ccc(F)c4Cl)c3c2)cnn1[C@H]1CC[C@@H](N2CCC[C@H]2C(=O)O)CC1 [Example 92, 1-{cis-4-[4-(3-{(1S)-1-[2-Chloro-6-(difluoromethoxy)-3-fluorophenyl]ethyl}-1H-pyrrolo[2,3-b]pyridin-5-yl)-5-methyl-1H-pyrazol-1-yl]cyclohexyl}-L-proline]
